Results on 17 compounds are retold here after PubChem BioAssay AID248 (DTP/NCI, 2004).

In this assay the test system is L1210 leukemia ip in BDF1 mice, survival T/C. In words: NCI In Vivo Anticancer Drug Screen. Data for tumor model L1210 Leukemia (intraperitoneal) in B6D2F1 (BDF1) mice. The following applies: higher = longer survival. The gist of the method: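 Tumor cells were implanted, animals were treated, and survival was followed. The result divides the treated measurement by the vehicle-control measurement.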

Setting [1] is: endpoint: mean survival time, dose: 100.0 mg/kg/injection, schedule: Q01DX001 (ip), vehicle: saline.
[2] abbreviates: endpoint: mean survival time, dose: 200.0 mg/kg/injection, schedule: Q01DX001 (ip), vehicle: saline.
The mark [3] stands for this setting: endpoint: mean survival time, dose: 400.0 mg/kg/injection, schedule: Q01DX001 (ip), vehicle: saline.
[4] abbreviates: endpoint: mean survival time, dose: 100.0 mg/kg/injection, schedule: Q04DX003 (ip), vehicle: saline with Tween-80.
[5] abbreviates: endpoint: mean survival time, dose: 100.0 mg/kg/injection, schedule: Q04DX002 (ip), vehicle: Klucel (hydroxypropylcellulose) (HPC).
Setting [6] is: endpoint: mean survival time, dose: 200.0 mg/kg/injection, schedule: Q04DX002 (ip), vehicle: Klucel (hydroxypropylcellulose) (HPC).
Where [7] appears, read: endpoint: mean survival time, dose: 400.0 mg/kg/injection, schedule: Q04DX002 (ip), vehicle: Klucel (hydroxypropylcellulose) (HPC).
[8] abbreviates: endpoint: mean survival time, dose: 100.0 mg/kg/injection, schedule: Q01DX009 (ip), vehicle: saline with Tween-80.
[9] abbreviates: endpoint: mean survival time, dose: 200.0 mg/kg/injection, schedule: Q01DX009 (ip), vehicle: saline with Tween-80.

Inconclusive results and toxic doses are left out.

In the case of `COC(=O)c1coc(C(=O)N2CCCC2)c1C(=O)O`, the T/C (endpoint: mean survival time, dose: 75.0 mg/kg/injection, schedule: Q04DX003 (ip), vehicle: Klucel (hydroxypropylcellulose) (HPC)) was 93 % of control; the T/C (endpoint: mean survival time, dose: 100.0 mg/kg/injection, schedule: Q01DX001 (ip), vehicle: Klucel (hydroxypropylcellulose) (HPC)) is 103 % of control; the T/C (endpoint: mean survival time, dose: 150.0 mg/kg/injection, schedule: Q04DX003 (ip), vehicle: Klucel (hydroxypropylcellulose) (HPC)) was 105 % of control; the T/C (endpoint: mean survival time, dose: 200.0 mg/kg/injection, schedule: Q01DX001 (ip), vehicle: Klucel (hydroxypropylcellulose) (HPC)) is 101 % of control; the T/C (endpoint: mean survival time, dose: 300.0 mg/kg/injection, schedule: Q04DX003 (ip), vehicle: Klucel (hydroxypropylcellulose) (HPC)) is 98 % of control; the T/C (endpoint: mean survival time, dose: 400.0 mg/kg/injection, schedule: Q01DX001 (ip), vehicle: Klucel (hydroxypropylcellulose) (HPC)) is 103 % of control.
For the compound `CC(C)=C(Br)Br`, the T/C is, setting by setting: (endpoint: mean survival time, dose: 75.0 mg/kg/injection, schedule: Q01DX001 (ip), vehicle: saline) 94 % of control; (endpoint: mean survival time, dose: 150.0 mg/kg/injection, schedule: Q01DX001 (ip), vehicle: saline) 94 % of control; (endpoint: mean survival time, dose: 300.0 mg/kg/injection, schedule: Q01DX001 (ip), vehicle: saline) 96 % of control.
`O=C1C=CC(=O)C2C3c4ccccc4C(c4ccccc43)C12` (stereo not given): the T/C reads like this: (endpoint: mean survival time, dose: 100.0 mg/kg/injection, schedule: Q01DX001 (ip), vehicle: saline with Tween-80) 93 % of control; (endpoint: mean survival time, dose: 100.0 mg/kg/injection, schedule: Q04DX002 (ip), vehicle: saline) 93 % of control; (endpoint: mean survival time, dose: 200.0 mg/kg/injection, schedule: Q01DX001 (ip), vehicle: saline with Tween-80) 108 % of control; (endpoint: mean survival time, dose: 200.0 mg/kg/injection, schedule: Q04DX002 (ip), vehicle: saline) 101 % of control; (endpoint: mean survival time, dose: 400.0 mg/kg/injection, schedule: Q01DX001 (ip), vehicle: saline with Tween-80) 100 % of control; (endpoint: mean survival time, dose: 400.0 mg/kg/injection, schedule: Q04DX002 (ip), vehicle: saline) 90 % of control.
As to `O=C(/C=C/c1cccc([N+](=O)[O-])c1)c1cccc([N+](=O)[O-])c1`, the T/C was 94 % of control (endpoint: mean survival time, dose: 12.5 mg/kg/injection, schedule: Q01DX009 (ip), vehicle: Klucel (hydroxypropylcellulose) (HPC)); 92 % of control (endpoint: mean survival time, dose: 25.0 mg/kg/injection, schedule: Q01DX009 (ip), vehicle: Klucel (hydroxypropylcellulose) (HPC)); 94 % of control (endpoint: mean survival time, dose: 25.0 mg/kg/injection, schedule: Q04DX003 (ip), vehicle: Klucel (hydroxypropylcellulose) (HPC)); 87 % of control (endpoint: mean survival time, dose: 50.0 mg/kg/injection, schedule: Q01DX009 (ip), vehicle: Klucel (hydroxypropylcellulose) (HPC)); 103 % of control (endpoint: mean survival time, dose: 50.0 mg/kg/injection, schedule: Q04DX003 (ip), vehicle: Klucel (hydroxypropylcellulose) (HPC)).
For `Nc1nc(N)c2nc(CNc3ccc(CC(=O)NC(CC(=O)O)C(=O)O)cc3)cnc2n1` (stereo not given), the T/C was 104 % of control (endpoint: mean survival time, dose: 25.0 mg/kg/injection, schedule: Q01DX009 (ip), vehicle: sodium bicarbonate); 106 % of control (endpoint: mean survival time, dose: 50.0 mg/kg/injection, schedule: Q01DX009 (ip), vehicle: sodium bicarbonate); 108 % of control (endpoint: mean survival time, dose: 100.0 mg/kg/injection, schedule: Q01DX009 (ip), vehicle: sodium bicarbonate).
For the compound `Cc1ccc2cc3c(cc(C)c4ccccc43)c3c2c1CC3`, the T/C is 102 % of control under setting [1], 96 % of control under setting [2] and 96 % of control under setting [3].
For the compound `CC(NC(=O)OCc1ccccc1)C(=O)NC(CCC(=O)OCc1ccccc1)C(=O)OCc1ccccc1` (stereo not given), the T/C under setting [4] was 93 % of control; the T/C (endpoint: mean survival time, dose: 200.0 mg/kg/injection, schedule: Q04DX003 (ip), vehicle: saline with Tween-80) was 92 % of control; the T/C (endpoint: mean survival time, dose: 400.0 mg/kg/injection, schedule: Q04DX003 (ip), vehicle: saline with Tween-80) was 92 % of control.
On to `O=C(Nc1cccc2ccccc12)OCCCl`, for which the T/C reads like this: (endpoint: mean survival time, dose: 100.0 mg/kg/injection, schedule: Q01DX001 (ip), vehicle: carboxymethylcellulose (CMC)) 93 % of control; (endpoint: mean survival time, dose: 200.0 mg/kg/injection, schedule: Q01DX001 (ip), vehicle: carboxymethylcellulose (CMC)) 90 % of control; (endpoint: mean survival time, dose: 400.0 mg/kg/injection, schedule: Q01DX001 (ip), vehicle: carboxymethylcellulose (CMC)) 95 % of control.
Regarding `CN(Cc1cnc2nc(N)nc(N)c2n1)c1ccc(C(=O)NC(CCC(=O)O)C(=O)O)cc1F` (stereo not given), the T/C (endpoint: median survival time, dose: 1.25 mg/kg/injection, schedule: Q01DX009 (ip), vehicle: other) was 150 % of control and the T/C (endpoint: median survival time, dose: 2.5 mg/kg/injection, schedule: Q01DX009 (ip), vehicle: other) was 161 % of control.
Consider `CSc1ccc(OC(=O)Nc2cccc3ccccc23)cc1`, for which the T/C reads like this: under setting [5], 96 % of control; under setting [6], 104 % of control; under setting [7], 101 % of control.
As to `CN(C)c1ccc(/C=N/NC(=O)CNC(=O)Nc2nccs2)c(Cl)c1`, the T/C by setting is: (endpoint: mean survival time, dose: 50.0 mg/kg/injection, schedule: Q01DX009 (ip), vehicle: saline with Tween-80) 100 % of control; under setting [8], 89 % of control; under setting [9], 89 % of control.
With `Cn1c(N)c(N=O)c(=O)n(C)c1=O`, the T/C (endpoint: mean survival time, dose: 9.0 mg/kg/injection, schedule: Q01DX009 (ip), vehicle: saline with Tween-80) is 103 % of control; the T/C (endpoint: mean survival time, dose: 18.0 mg/kg/injection, schedule: Q01DX009 (ip), vehicle: saline with Tween-80) is 103 % of control; the T/C (endpoint: mean survival time, dose: 36.0 mg/kg/injection, schedule: Q01DX009 (ip), vehicle: saline with Tween-80) is 105 % of control; the T/C (endpoint: mean survival time, dose: 72.0 mg/kg/injection, schedule: Q01DX009 (ip), vehicle: saline with Tween-80) was 97 % of control; the T/C (endpoint: mean survival time, dose: 90.0 mg/kg/injection, schedule: Q01DX009 (ip), vehicle: saline with Tween-80) is 93 % of control; the T/C (endpoint: mean survival time, dose: 180.0 mg/kg/injection, schedule: Q01DX009 (ip), vehicle: saline with Tween-80) is 100 % of control. Also, the T/C was 98 % of control (endpoint: mean survival time, dose: 360.0 mg/kg/injection, schedule: Q01DX009 (ip), vehicle: saline with Tween-80); 97 % of control (endpoint: mean survival time, dose: 360.0 mg/kg/injection, schedule: Q04DX003 (ip), vehicle: saline with Tween-80); 95 % of control (endpoint: mean survival time, dose: 720.0 mg/kg/injection, schedule: Q04DX003 (ip), vehicle: saline with Tween-80).
With `FC(F)(F)c1cccc(NC(=S)N/N=C/c2ccccc2)c1`, the T/C is 92 % of control under setting [8]; 97 % of control under setting [9]; 94 % of control (endpoint: mean survival time, dose: 400.0 mg/kg/injection, schedule: Q01DX009 (ip), vehicle: saline with Tween-80).
Regarding `C1=NC(c2ccccc2)=CN(C2CCCCC2)C1(c1ccccc1)C1CCCCC1` (stereo not given), the T/C reads like this: (endpoint: mean survival time, dose: 50.0 mg/kg/injection, schedule: Q04DX002 (ip), vehicle: saline with Tween-80) 99 % of control; under setting [5], 92 % of control; (endpoint: mean survival time, dose: 100.0 mg/kg/injection, schedule: Q04DX002 (ip), vehicle: saline with Tween-80) 105 % of control; under setting [6], 98 % of control; (endpoint: mean survival time, dose: 200.0 mg/kg/injection, schedule: Q04DX002 (ip), vehicle: saline with Tween-80) 96 % of control; under setting [7], 98 % of control.
As for `NC(=O)Nc1cccc(C(=O)O)c1C(=O)O`, the T/C runs as follows: (endpoint: mean survival time, dose: 100.0 mg/kg/injection, schedule: Q01DX001 (ip), vehicle: other) 101 % of control; (endpoint: mean survival time, dose: 100.0 mg/kg/injection, schedule: Q04DX003 (ip), vehicle: other) 102 % of control; (endpoint: mean survival time, dose: 200.0 mg/kg/injection, schedule: Q01DX001 (ip), vehicle: other) 101 % of control; (endpoint: mean survival time, dose: 200.0 mg/kg/injection, schedule: Q04DX003 (ip), vehicle: other) 98 % of control; (endpoint: mean survival time, dose: 400.0 mg/kg/injection, schedule: Q01DX001 (ip), vehicle: other) 107 % of control; (endpoint: mean survival time, dose: 400.0 mg/kg/injection, schedule: Q04DX003 (ip), vehicle: other) 98 % of control.
Take `CC(C)(C)/C([O-])=N/[N+](C)(C)C`: the T/C was 108 % of control under setting [1], 97 % of control under setting [2] and 101 % of control under setting [3].
Take `C/C(=N/NC(=O)c1ccncc1)C(=O)O`: the T/C runs as follows: (endpoint: mean survival time, dose: 25.0 mg/kg/injection, schedule: Q04DX003 (ip), vehicle: saline with Tween-80) 92 % of control; (endpoint: mean survival time, dose: 50.0 mg/kg/injection, schedule: Q04DX003 (ip), vehicle: saline with Tween-80) 93 % of control; under setting [4], 101 % of control.
